Results: US9994830B2, “Methods for modulating cyclic nucleotide-mediated signaling in cardiac myocytes and compositions” (The United States of America as Represented by the …, priority 2014, dated 2018)

How the values were obtained:
SR vesicles = assay: 45Ca2+ uptake in SR vesicles from human myocardium; type: biochemical; conditions: cAMP 3 μM, cilostamide 1 μM; SR fractions
Experimental: FIG. 7 a-f. cAMP, PKA, and PDE3-inhibition increase SERCA2 activity and Ca^2+ uptake. A. After incubation of SR fractions (20 μg) in the absence or presence of the indicated concentrations of ATP and/or cAMP, without or with cilostamide or rolipram, endogenous PLB, phosphorylated PLB, and ρ-actin were detected after SDS-PAGE and immunoblotting. Data are representative of three experiments. In these and other Western blots, PLB is predominantly monomeric, most likely due to the heating of samples, prior to electrophoresis, under reducing conditions (buffer containing β-mercatoethanol, DTT, and SDS). […] PDE activity in human cardiac SR fractions, expressed as specific activity (pmol cAMP hydrolyzed/min/mg). […] PDE3 activity was determined as the cilostamide-sensitive fraction, and PDE4 activity as the rolipram-sensitive fraction. […] D. After incubation of SR fractions without or with the indicated concentrations of cAMP (0-10 μM), ^45Ca^2+ uptake was measured in the presence of 0.5 μM free Ca^2+. […]
Oxalate-dependent Ca^2+ uptake was quantified as described previously (17). […] After washing four times with 4 ml buffer containing 140 mM KCl, 10 mM NaCl, 2 mM MgCl2, 1 mM CaCl2 and 50 mM imidazole-HCl, (pH 7.0), radioactivity retained on the filters was quantified by liquid scintillation counting. Free [Ca^2+] was calculated using a program obtained at http://www.stanford.edu/˜cpatton/webmaxc/webmaxcS.htm.

[1] = tested on: neonatal rat ventricular myocytes; assay: Hypertrophy of neonatal rat ventricular myocytes (PDE3 inhibitor treatment or transfection with dominant-negative constructs, with or without norepinephrine); type: cell-based; conditions: neonatal rat ventricular myocytes; treatment or transfection alone
Excerpt: FIG. 5. Anti-hypertrophic actions of PDE3A1-selective targeting in neonatal rat ventricular myocytes.
In contrast, expression of the PDE3A1 dominant negative has no pro-hypertrophic effect, and actually blocks the hypertrophic responses to norepinephrine.
In neonatal rat ventricular myocytes, conventional PDE3 inhibition promotes cellular hypertrophy, which may be associated with adverse consequences in heart failure. We questioned what effect PDE3A1-selective inhibition would have. […] The F1004A substitution is a change in the amino acid sequence of PDE3A1 at amino acid position 1004 from a phenylalanine to an alanine. We transfected neonatal rat ventricular myocytes with this dominant-negative construct to competitively block the protein-protein interactions that localize PDE3A1 to specific intracellular microdomains. […] To our knowledge, this is the first direct evidence that conventional PDE3 inhibition and isoform-selective targeting have different effects in cardiac myocytes, and that some of the adverse consequences of nonselective PDE3 inhibition may be averted by isoform-selective targeting involving protein-protein interactions.

PLB = assay: cAMP-dependent phosphorylation of endogenous PLB in human myocardial membranes; type: biochemical; conditions: 0.1 μM cAMP; cilostamide 1 μM or rolipram 10 μM; human left ventricular microsomes
Experimental: FIG. 7 a-f. cAMP, PKA, and PDE3-inhibition increase SERCA2 activity and Ca^2+ uptake. A. After incubation of SR fractions (20 μg) in the absence or presence of the indicated concentrations of ATP and/or cAMP, without or with cilostamide or rolipram, endogenous PLB, phosphorylated PLB, and ρ-actin were detected after SDS-PAGE and immunoblotting. Data are representative of three experiments. In these and other Western blots, PLB is predominantly monomeric, most likely due to the heating of samples, prior to electrophoresis, under reducing conditions (buffer containing β-mercatoethanol, DTT, and SDS). B. Bar graph summarizing pSer16PLB/PLB total ratios. *P<0.01 vs. control (n=3 independent experiments). C. PDE activity in human cardiac SR fractions, expressed as specific activity (pmol cAMP hydrolyzed/min/mg). Results are presented as mean+/−SEM (n=3 preparations). PDE3 activity was determined as the cilostamide-sensitive fraction, and PDE4 activity as the rolipram-sensitive fraction. […] D. After incubation of SR fractions without or with the indicated concentrations of cAMP (0-10 μM), ^45Ca^2+ uptake was measured in the presence of 0.5 μM free Ca^2+. Results are presented as % increase due to cAMP, with basal Ca^2+ uptake (9.4+/−0.8 nmol/mg/min, n=3) taken as 100%. […]

SMILES | effect on cAMP-increased ATP-dependent, oxalate-supported Ca2+ uptake (SR vesicles) | cellular hypertrophy [1] | phosphorylation of PLB at S16 by endogenous PKA (PLB)
CN(C(=O)CCCOc1ccc2[nH]c(=O)ccc2c1)C1CCCCC1 [cilostamide] | potentiated | promote myocyte hypertrophy | stimulated
COc1ccc(C2CNC(=O)C2)cc1OC1CCCC1 (stereo not shown) [rolipram] | – | – | no effect
